Data from US8741602B2, “Method for producing glucuronic acid conjugate using Saccharomyces cerevisiae” (Toyama Prefecture, priority 2010, dated 2014).

Tests used:
hUGT1A9 = target: T1, hUGT1A9 (Homo sapiens, UniProt O60656); assay: Glucuronide production in resting S. cerevisiae AH22 cells co-expressing UDPGDH and UGT1A9; type: cell-based
T1 construct: expressed in transfected cells; host or cells: Saccharomyces cerevisiae AH22
T1 sequence (O60656 26-530): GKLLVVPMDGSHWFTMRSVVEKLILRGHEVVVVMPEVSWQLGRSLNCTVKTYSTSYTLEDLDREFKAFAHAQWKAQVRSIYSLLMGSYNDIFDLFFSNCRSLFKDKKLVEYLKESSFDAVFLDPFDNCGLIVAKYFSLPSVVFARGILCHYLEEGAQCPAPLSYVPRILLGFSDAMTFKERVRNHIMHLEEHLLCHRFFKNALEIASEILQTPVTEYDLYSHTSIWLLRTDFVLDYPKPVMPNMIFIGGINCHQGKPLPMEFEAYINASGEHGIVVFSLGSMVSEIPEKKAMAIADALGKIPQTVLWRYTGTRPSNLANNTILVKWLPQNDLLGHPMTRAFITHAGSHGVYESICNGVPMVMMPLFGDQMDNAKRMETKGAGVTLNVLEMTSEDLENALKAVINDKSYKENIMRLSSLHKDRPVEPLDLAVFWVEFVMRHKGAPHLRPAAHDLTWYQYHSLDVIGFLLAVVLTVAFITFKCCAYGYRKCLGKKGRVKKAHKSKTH
Experimental: (§1) Each phase was analyzed by UPLC system.

UGT1A6 = target: T2, UGT1A6 (Homo sapiens, UniProt P19224); assay: Glucuronide production in resting S. cerevisiae AH22 cells co-expressing UDPGDH and UGT1A6; type: cell-based; design: expressed in transfected cells; host or cells: Saccharomyces cerevisiae AH22
T2 sequence (P19224 27-532): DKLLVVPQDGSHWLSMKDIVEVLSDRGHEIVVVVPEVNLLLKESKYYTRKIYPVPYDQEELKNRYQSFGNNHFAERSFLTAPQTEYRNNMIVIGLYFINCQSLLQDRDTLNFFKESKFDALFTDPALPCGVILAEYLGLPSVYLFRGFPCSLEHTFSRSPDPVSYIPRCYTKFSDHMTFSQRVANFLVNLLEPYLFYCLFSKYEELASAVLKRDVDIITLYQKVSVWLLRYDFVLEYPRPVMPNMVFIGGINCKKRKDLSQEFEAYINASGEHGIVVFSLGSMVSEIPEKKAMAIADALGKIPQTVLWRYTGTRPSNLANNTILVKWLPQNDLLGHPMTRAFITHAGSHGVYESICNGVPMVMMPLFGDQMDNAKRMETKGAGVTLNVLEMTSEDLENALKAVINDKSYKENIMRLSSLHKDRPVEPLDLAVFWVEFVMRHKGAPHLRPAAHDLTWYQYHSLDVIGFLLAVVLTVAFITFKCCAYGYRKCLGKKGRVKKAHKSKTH
Experimental: as §1
Time course of conversion in the transformant with the highest activity of glucuronidation (AH22: pAUR/At.UDPGDH+pGYR/hUGT1A6) was examined (FIG. 6).
Glucose concentration dependence of conversion in the transformant with the highest activity of glucuronidation (AH22: pAUR/At.UDPGDH+pGYR/hUGT1A6) was examined (FIG. 7).

hUGT1A7 = target: T3, hUGT1A7 (Homo sapiens, UniProt Q9HAW7); assay: Glucuronide production in resting S. cerevisiae AH22 cells co-expressing UDPGDH and UGT1A7; type: cell-based; settings: UGT1A7 with At.UDPGDH; 7-hydroxycoumarine substrate, 30° C., 24 hrs
T3 construct: expressed in transfected cells; host or cells: Saccharomyces cerevisiae AH22
T3 sequence (Q9HAW7 26-530): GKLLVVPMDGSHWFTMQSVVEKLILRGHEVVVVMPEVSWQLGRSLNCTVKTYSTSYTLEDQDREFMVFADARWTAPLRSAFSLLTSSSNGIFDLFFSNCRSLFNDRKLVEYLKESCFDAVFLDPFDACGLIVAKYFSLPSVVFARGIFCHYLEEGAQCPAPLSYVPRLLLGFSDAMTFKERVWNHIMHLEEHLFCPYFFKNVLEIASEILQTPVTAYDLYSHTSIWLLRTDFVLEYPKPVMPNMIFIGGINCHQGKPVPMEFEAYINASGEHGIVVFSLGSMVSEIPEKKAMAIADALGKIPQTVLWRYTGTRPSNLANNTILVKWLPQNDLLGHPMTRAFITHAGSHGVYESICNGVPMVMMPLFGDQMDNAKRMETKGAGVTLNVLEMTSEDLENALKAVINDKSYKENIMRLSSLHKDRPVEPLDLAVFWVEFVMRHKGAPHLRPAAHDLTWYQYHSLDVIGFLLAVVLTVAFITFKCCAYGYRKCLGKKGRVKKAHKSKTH
Experimental: as §1

hUGT1A8 = target: T4, hUGT1A8 (Homo sapiens, UniProt Q9HAW9); assay: Glucuronide production in resting S. cerevisiae AH22 cells co-expressing UDPGDH and UGT1A8; type: cell-based
T4 construct: expressed in transfected cells; host or cells: Saccharomyces cerevisiae AH22
T4 sequence (Q9HAW9 26-530): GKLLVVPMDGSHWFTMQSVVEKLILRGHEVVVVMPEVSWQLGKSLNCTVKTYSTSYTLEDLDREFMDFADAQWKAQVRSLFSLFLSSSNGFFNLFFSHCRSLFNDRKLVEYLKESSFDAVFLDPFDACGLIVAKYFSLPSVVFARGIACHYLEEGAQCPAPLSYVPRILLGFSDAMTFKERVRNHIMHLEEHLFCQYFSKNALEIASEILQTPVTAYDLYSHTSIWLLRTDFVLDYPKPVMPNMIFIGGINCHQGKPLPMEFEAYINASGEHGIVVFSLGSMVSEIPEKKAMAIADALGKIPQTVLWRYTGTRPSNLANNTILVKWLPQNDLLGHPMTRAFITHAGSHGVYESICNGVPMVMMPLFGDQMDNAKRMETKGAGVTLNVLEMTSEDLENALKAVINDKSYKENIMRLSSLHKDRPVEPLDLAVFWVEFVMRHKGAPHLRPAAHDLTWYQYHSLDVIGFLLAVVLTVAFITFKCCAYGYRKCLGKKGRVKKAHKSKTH
Experimental: as §1

hUGT1A1 [1] = target: T5, hUGT1A1 (Homo sapiens, UniProt P22309); assay: Glucuronide production in resting S. cerevisiae AH22 cells co-expressing UDPGDH and UGT1A1; settings: UGT1A1 with At.UDPGDH; 7-hydroxycoumarine substrate, 30° C., 24 hrs
T5 sequence (P22309 28-533): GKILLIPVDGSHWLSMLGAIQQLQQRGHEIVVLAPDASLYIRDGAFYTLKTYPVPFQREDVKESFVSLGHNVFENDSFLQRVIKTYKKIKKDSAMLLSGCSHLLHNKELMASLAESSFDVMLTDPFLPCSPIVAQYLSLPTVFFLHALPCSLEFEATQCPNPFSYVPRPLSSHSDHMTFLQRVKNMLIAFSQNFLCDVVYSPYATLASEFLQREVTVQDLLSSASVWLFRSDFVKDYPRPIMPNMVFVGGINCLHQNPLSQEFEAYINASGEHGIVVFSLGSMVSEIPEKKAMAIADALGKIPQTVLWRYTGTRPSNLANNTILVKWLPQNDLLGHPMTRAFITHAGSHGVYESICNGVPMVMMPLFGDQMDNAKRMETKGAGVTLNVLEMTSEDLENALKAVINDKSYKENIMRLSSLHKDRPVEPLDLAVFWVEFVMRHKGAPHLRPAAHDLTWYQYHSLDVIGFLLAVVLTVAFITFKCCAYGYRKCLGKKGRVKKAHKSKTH
Experimental: (§2) To confirm the production of 7-hydroxycoumarine glucuronide in the resting yeast cells containing UDPGDH and UGT, transformants were cultivated in selection medium at 30° C., 48 hrs, and the resultant yeast cells were suspended with appropriate buffer solution containing 0.1-1 mM 7-hydroxycoumarine and 1-8% (w/v) glucose. After incubation at 30° C., 24 hrs, 2-fold volume of chloroform:methanol (3:1, v/v) was added to reaction medium containing yeast cells. Centrifugation of extracts was separated to upper water and lower organic phase. Lower organic phase were evaporated and redissolved in 200 μl acetonitrile. Each phase was analyzed by UPLC system. Condition of analysis are described below; column: Cosmosil 2.5C18-MS-II (2.0 mm×100 mm, nacalai tesque), flow rate 0.5 ml/min, detection 320 nm, temperature 45° C. Condition of gradient elution: water-acetonitrile with 0.5% (v/v) trifluoroacetic acid, 10% (v/v) acetonitrile (4 min), 10-70% acetonitrile (6 min), 70-10% acetonitrile (2 min), 10% acetonitrile (4 min).
(§3) To confirm the production of quercetin glucuronide in the resting yeast cells containing UDPGDH and UGT (pAUR/At.UDPGDH+pGYR/hUGT1A1), transformants were cultivated in selection medium at 30° C., 48 hrs, and the resultant yeast cells were suspended with 0.1 M potassium phosphate buffer (pH 7.4) containing 0.2 mM quercetin and 8% (w/v) glucose. After incubation at 30° C., 24 hrs, 2-fold volume of chloroform:methanol (3:1, v/v) was added to reaction medium containing yeast cells. Centrifugation of extracts was separated to upper water and lower organic phase. Lower organic phase were evaporated and redissolved in 200 μl acetonitrile. Quercetin glucuronides in yeast cells was isolated and detected by WAKOPAK™ Navi C30-5 (3 mm×150 mm, Wako Chemical)-column-HPLC system with followed condition; flow rate; 0.4 ml/min, detection; 370 nm, temperature 37° C. Condition of gradient elution: water-acetonitrile with 0.5% (v/v) phosphoric acid, 18% (v/v) acetonitrile (10 min), 18-55% acetonitrile (10 min), 55% acetonitrile (5 min).
(§4) To compare the production ability of glucuronide in budding (Saccharomyces cerevisiae) and fission yeast (Schizosaccharomyces pombe) containing UDPGDH and UGT, several transformants (No. 4 in Table 2 and transformant with N-terminal modified UGT1A1) were selected for the assay. These transformants were cultivated in selection medium at 30° C., 48 hrs, and the resultant yeast cells were suspended with appropriate buffer solution containing 0.5 mM 4-methylumberrferone and 8% (w/v) glucose. After incubation at 30° C., 24 hrs, 2-fold volume of chloroform:methanol (3:1, v/v) was added to reaction medium containing yeast cells. Centrifugation of extracts was separated to upper water and lower organic phase. Lower organic phase were evaporated and redissolved in 200 μl acetonitrile. Each phase was analyzed by UPLC system.
(§5) Condition of analysis are described below; column: COSMOSIL™ 2.5C18-MS-II (2.0 mm×100 mm, Nacalai Tesque), flow rate 0.5 ml/min, detection 320 nm, temperature 45° C. Condition of gradient elution: water-acetonitrile with 0.1% (v/v) trifluoroacetic acid, 10% acetonitrile (4 min), 10-70% acetonitrile (6 min), 70-10% acetonitrile (2 min), 10% acetonitrile (3 min).

UGT1A10 = target: T6, UGT1A10 (Homo sapiens, UniProt Q9HAW8); assay: Acyl glucuronide production in resting S. cerevisiae cells co-expressing UDPGDH and UGT1A10; type: cell-based; settings: 1 mM mefenamic acid
T6 construct: expressed in transfected cells; host or cells: Saccharomyces cerevisiae AH22
T6 sequence (Q9HAW8 26-530): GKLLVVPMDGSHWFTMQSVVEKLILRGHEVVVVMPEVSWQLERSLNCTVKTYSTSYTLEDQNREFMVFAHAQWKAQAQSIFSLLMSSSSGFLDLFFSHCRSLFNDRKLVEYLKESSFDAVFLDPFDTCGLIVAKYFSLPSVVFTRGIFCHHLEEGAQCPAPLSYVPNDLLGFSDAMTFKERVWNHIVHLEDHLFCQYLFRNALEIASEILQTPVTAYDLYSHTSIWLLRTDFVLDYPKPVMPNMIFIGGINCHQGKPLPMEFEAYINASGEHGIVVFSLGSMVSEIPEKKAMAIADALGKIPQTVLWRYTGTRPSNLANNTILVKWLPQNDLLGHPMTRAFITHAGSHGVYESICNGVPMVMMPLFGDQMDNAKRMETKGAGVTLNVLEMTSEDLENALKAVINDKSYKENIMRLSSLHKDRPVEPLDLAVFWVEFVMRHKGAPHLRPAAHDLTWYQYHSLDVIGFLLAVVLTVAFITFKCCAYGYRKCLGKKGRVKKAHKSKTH
Experimental: as §1

[2] = target: T7, rat UDP-glucose dehydrogenase (Rattus norvegicus, UniProt O70199); assay: Production of UDP-glucuronic acid in yeast cells transformed with rat UDP-glucose dehydrogenase gene; type: cell-based; settings: estimation of sugar nucleotide, FIG. 4 line C
T7 construct: confirmed the gene product from GenBank Acc; ID NO: 9; expressed in transfected cells; host or cells: Saccharomyces cerevisiae AH22
T7 sequence (O70199 1-493): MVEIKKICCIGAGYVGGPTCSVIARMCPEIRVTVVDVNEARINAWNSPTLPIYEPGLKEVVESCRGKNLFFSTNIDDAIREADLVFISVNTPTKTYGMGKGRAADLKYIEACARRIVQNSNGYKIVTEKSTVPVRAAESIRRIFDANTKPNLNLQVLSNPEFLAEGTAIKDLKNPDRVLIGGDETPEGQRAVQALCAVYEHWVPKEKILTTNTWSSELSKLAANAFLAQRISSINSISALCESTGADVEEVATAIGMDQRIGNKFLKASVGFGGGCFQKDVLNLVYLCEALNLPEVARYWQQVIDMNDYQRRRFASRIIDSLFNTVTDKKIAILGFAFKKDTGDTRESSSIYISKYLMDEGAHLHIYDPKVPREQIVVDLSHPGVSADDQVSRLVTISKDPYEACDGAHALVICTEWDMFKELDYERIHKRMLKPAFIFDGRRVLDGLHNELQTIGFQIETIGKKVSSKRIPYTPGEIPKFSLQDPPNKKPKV
From the text: Upper water phase of extracts were separated by centrifugation.

hUGT1A1 [3] = target: T5, hUGT1A1; settings: 24 h, 0.2 mM, pH 7.4
Experimental: as §2, §3, §4, §5

Question: Which “site of glucuronidation (FIG. 10)” value (hUGT1A9; 0.2 mM mycophenolic acid, UGT1A9) does the source give for `COc1c(C)c2c(c(O[C@@H]3O[C@H](C(=O)O)[C@@H](O)[C@H](O)[C@H]3O)c1C/C=C(\C)CCC(=O)O)C(=O)OC2` [mycophenolic-O-glucuronide] here?
Answer: The value was “preferential production”.

Question: Which results are given for `O=c1ccc2ccc(O)cc2o1` [7OHC, 7-hydroxycoumarine, reference compound]?
Answer: conversion to glucuronide, time course (FIG. 6) (UGT1A6; 0.5 mM 7OHC, after 24 hrs): complete conversion; conversion to glucuronide, glucose dependence (FIG. 7) (UGT1A6; at 8% (w/v) glucose): complete conversion

Question: How did the “production of glucuronide (FIG. 10)” value (hUGT1A9; 0.2 mM mycophenolic acid, 8% glucose, 30° C., 24 hrs) turn out when `COc1c(C)c2c(c(O[C@@H]3O[C@H](C(=O)O)[C@@H](O)[C@H](O)[C@H]3O)c1C/C=C(\C)CCC(=O)O)C(=O)OC2` [mycophenolic acid glucuronide] was run?
Answer: The value was “confirmed”.

Question: Which results are given for `O=C(O)[C@H]1O[C@@H](Oc2ccc3ccc(=O)oc3c2)[C@H](O)[C@@H](O)[C@@H]1O` [glucuronide of 7-hydroxycoumarine, 7-hydroxycoumarine glucuronide]?
Answer: production of glucuronide (FIG. 5) (UGT1A6; UGT1A6 with At.UDPGDH, 7-hydroxycoumarine substrate, 30° C., 24 hrs): observed; productivity of glucuronide (UGT1A6; optimal conditions, cells expressing UDPGDH and UGT1A6): 200 mg per liter of reaction solution; production of glucuronide (FIG. 5) (hUGT1A7): observed; production of glucuronide (FIG. 5) (hUGT1A8; UGT1A8 with At.UDPGDH, 7-hydroxycoumarine substrate, 30° C., 24 hrs): observed; production of glucuronide (FIG. 5) (hUGT1A1 [1]): observed; production of glucuronide (FIG. 5) (hUGT1A9): observed

Question: `Cc1cccc(Nc2ccccc2C(=O)O[C@@H]2O[C@H](C(=O)O)[C@@H](O)[C@H](O)[C@H]2O)c1C` [mefenamic acid acyl glucuronide] was tested. Which “acyl glucuronide formation (FIG. 11)” value (hUGT1A8; 1 mM mefenamic acid, UGT1A8) did it give?
Answer: The value was “significant activity”.

Question: What about the “acyl glucuronide formation (FIG. 11)” value (UGT1A10) of the same compound?
Answer: Its value is “significant activity”.

Question: For `O=C(O)[C@H]1O[C@H](OP(=O)(O)OP(=O)(O)OC[C@H]2O[C@@H](n3ccc(=O)[nH]c3=O)[C@H](O)[C@@H]2O)[C@H](O)[C@@H](O)[C@@H]1O` [UDP-glucuronic acid], which “concentration of endogenous UDP-glucuronic acid in yeast cells” value [2] is on record?
Answer: Its value is 4 to 5 mM.

Question: Which “site of glucuronidation (FIG. 9)” value (hUGT1A1 [3]) does the source give for `O=c1c(O)c(-c2ccc(O)c(O)c2)oc2cc(O)cc(O)c12` [Quercetin, quercetin] here?
Answer: The value was “preferential production of querecetin glucuronide at 3′ phenolic hydroxyl group in B ring”.
